Laboratory results published in patent US20250289808A1 (BenoBio Co., Ltd, priority 2024, published 2025).
pIC50: −log10 of the molar value.

Legend:
[1] = molecular target: T1, BRD2 (BD1) (Homo sapiens, UniProt P25440); assay: Binding inhibitory effect on BRD2 protein (AlphaScreen, acetyl-histone H4 peptide); settings: GST-BRD2 (BD1) 100 nM, biotinylated acetyl-histone H4 peptide 100 nM
T1 construct: a bromodomain of BRD2 (BD1) and BRD3 (BD1), one of the BET protein family

[2] = system: retinal degeneration mouse model; assay: Electroretinogram (ERG) in blue LED-induced retinal degeneration mouse model; type: in vivo, BALB/c mice; settings: compound 24 nM, Eylea 25 mg/kg; for Wavelength enhanced multiple compared to a normal saline-treated group, Average value: average of a-wave and b-wave; for Wavelength enhanced multiple compared to a normal saline-treated group, a-wave / Wavelength enhanced multiple compared to a normal saline-treated group, b-wave: single intravitreal injection 1 hour after LED exposure
[3] = system: macular degeneration animal model; assay: Laser-induced macular degeneration mouse model, FFA and OCT imaging; type: in vivo; settings: day 11, compound 0.022 μg/eye, Eylea 20 μg/eye
Experimental: After the mouse was subjected to general anesthesia, the eye was applied with anesthetic eye drops to be subjected to additional local anesthesia and additionally induce mydriasis. A macular degeneration animal model was prepared by destroying the Bruch's membrane by inducing laser burn according to macular degeneration induction conditions. […] On day 11 of macular degeneration induction, the mice were subjected to general anesthesia and then injected intraperitoneally with a fluorescent contrast agent. The mouse was placed on the sacrifice table, lubricating gel was dropped into the corresponding eye, and an OCT lens was brought into contact with the mouse's cornea. Image analysis for fluorescein fundus angiography (FFA) and OCT was performed using the Image-J program.

[4] = molecular target: T2, BRD3 (BD1) (Homo sapiens, UniProt Q15059); assay: Binding inhibitory effect on BRD3 protein (AlphaScreen, same manner as 1-1); settings: same manner as Experimental Example 1-1
T2 construct: a bromodomain of BRD2 (BD1) and BRD3 (BD1), one of the BET protein family; GST
T2 sequence (Q15059 34-140 limits assumed): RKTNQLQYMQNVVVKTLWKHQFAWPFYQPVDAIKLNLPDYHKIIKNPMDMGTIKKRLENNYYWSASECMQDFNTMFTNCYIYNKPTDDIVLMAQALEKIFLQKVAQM

T1 sequence (P25440 74-180 limits assumed): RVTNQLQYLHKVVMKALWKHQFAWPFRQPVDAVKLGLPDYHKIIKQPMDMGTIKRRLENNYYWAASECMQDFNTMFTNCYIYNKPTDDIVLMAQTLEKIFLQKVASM

pIC50 [1] | Wavelength enhanced multiple compared to a normal saline-treated group, Average value [2] | Wavelength enhanced multiple compared to a normal saline-treated group, a-wave [2] | Wavelength enhanced multiple compared to a normal saline-treated group, b-wave [2] | pIC50 [4] | Compound | CTF value ([3]; FFA imaging) | Lesion size compared to negative control group ([3]; FFA imaging) | Lesion size compared to negative control group ([3]; OCT imaging) | Volume of lesion ([3]; OCT imaging)
4.78 |  |  |  |  | CC(C)NCc1ccc(-c2ccccc2-c2cccc3c2CN(C)C3=O)o1 [Compound 8, 2-methyl-4-(2-(5-((isopropylamino)methyl)furan-2-yl)phenyl)isoindoline-1-one] |  |  |  | 
 | 1.33 | 1.29 | 1.36 |  | CN1Cc2c(cccc2-c2ccccc2-c2ccc(CN3CCOCC3)o2)C1=O [Compound 13, 2-methyl-4-(2-(5-(morpholinomethyl)furan-2-yl)phenyl)isoindoline-1-one] | 321,816 Pixels | 34.96% | 57.66% | 1,256,002 μm^3
 | 2.04 | 2.05 | 2.03 |  | CN1Cc2c(cccc2-c2ccccc2-c2ccc(CNCc3cnn(C)c3)o2)C1=O [Compound 18, 2-methyl-4-(2-(5-((((1-methyl-1H-pyrazole-4yl)methyl)amino)methyl)furan-2-yl)phenyl)isoindoline-1-one] | 389,222 Pixels | 42.28% | 45.15% | 983,477 μm^3
 | 2.30 | 2.17 | 2.42 |  | CNC(=O)C1(Cc2ccc(F)cc2)CCN(Cc2ccc(-c3ccccc3-c3cccc4c3CN(C)C4=O)o2)CC1 [Compound 21, 2-methyl-4-(2-(5-(((4-(4-fluorobenzyl)-4′-carboxamidyl)piperidine)methyl)furan-2-yl)phenyl)isoindoline-1-one] | 251,239 Pixels | 27.29% | 40.79% | 888,502 μm^3
 | 1.27 | 1.52 | 1.01 |  | CNC(=O)C1(C)CN(Cc2ccc(-c3ccccc3-c3cccc4c3CN(C)C4=O)o2)CCC1O (stereo not shown) [Compound 25] | 300,650 Pixels | 32.66% | 44.01% | 958,694 μm^3
4.85 |  |  |  | 5.59 | CNC(=O)C1(Cc2ccccc2)CCCN(Cc2ccc(-c3ccccc3-c3cccc4c3CN(C)C4=O)o2)C1 (stereo not shown) [Compound 27] |  |  |  | 
4.91 |  |  |  | 5.91 | CNC(=O)CC1C(=O)NCCN1C(=O)c1ccc(-c2ccccc2-c2cccc3c2CN(C)C3=O)o1 (stereo not shown) [Compound 35] |  |  |  | 
 | 1.38 | 1.45 | 1.31 |  | CN1Cc2c(cccc2-c2ccccc2-c2ccc(COCN3CCC(F)(F)CC3)o2)C1=O [Compound 37, 2-methyl-4-(2-(5-((((4,4-difluoropiperidine-1-yl)methoxy)-3-carboxamidyl)methyl)furan-2-yl)phenyl)isoindoline-1-one] | 320,028 Pixels | 34.76% | 46.40% | 1,010,752 μm^3
 | 1.36 | 1.21 | 1.51 |  | CNC(=O)C1(Cc2ccc(F)cc2)CCN(Cc2oc(-c3ccccc3-c3cccc4c3CN(C)C4=O)cc2C)CC1 [Compound 39, 2-methyl-4-(2-(5-((3-methyl (4-(4-fluorobenzyl)-4′-carboxamidyl)piperidine)methyl)furan-2-yl)phenyl)isoindoline-1-one] | 252,108 Pixels | 27.38% | 58.10% | 1,265,636 μm^3
 | 1.30 | 1.16 | 1.43 |  | CCC1(C(=O)NC)CCCN(Cc2oc(-c3ccccc3-c3cccc4c3CN(C)C4=O)cc2C)C1 (stereo not shown) [Compound 40] | 362,456 Pixels | 39.37% | 54.01% | 1,176,522 μm^3
 | 1.32 | 1.25 | 1.38 |  | CNC(=O)CC1C(=O)NCCN1Cc1oc(-c2ccccc2-c2cccc3c2CN(C)C3=O)cc1C (stereo not shown) [Compound 42, 2-methyl-4-(2-(5-(3-methyl(N-methyl-2-(3-oxopiperazine-2yl)acetamidyl)methyl)furan-2-yl)phenyl)isoindoline-1-one] | 381,846 Pixels | 41.48% | 52.86% | 1,151,561 μm^3
